Measured values from patent publication US12011432B2, “Method of modulating ribonucleotide reductase” (CASE WESTERN RESERVE UNIVERSITY, priority 2018, dated 2024).

Tests used:
[1] = system: Human pancreatic cancer cells (Pancl); assay: Cancer cell line growth inhibition assay (DNA content); format: cell-based; set-up: inhibition of growth of Pancl cells: dose or concentration left out as unconfirmed; conditions: for IC50: Homo sapiens, Pancreatic cancer cell, 72 h, continuous exposure for three days; for IC50 / activity/potency against growth of Pancl cells (in words): DNA content per well; for inhibition of growth of Pancl cells / activity/potency against growth of Pancl cells (in words): three days
Experimental: Growth inhibition assays were performed in the Translational Research Shared Resource of the Case Comprehensive Cancer Centre. Human pancreatic cancer cells (Pancl) were maintained in standard growth medium consisting of (RPMI1640+10% FBS+2 mM glutamine+100 U/mL penicillin, and […] streptomycin). Cells were monitored and shown to be negative for mycoplasma contamination using the Mycoplasma Detection kit (MycoAlert™, Lonza, Basel, Switzerland). For growth inhibition assays, cells were harvested by trypsinisation and seeded into 96-well tissue culture plates at 2500 cells/mL. The following day, triplicate wells were treated with an appropriate volume of 5x-inhibitor-containing medium. The cells were cultured for 3 additional days at 37° C. in a 5% CO2 humidified incubator. Cell growth was assessed by measuring total DNA content per well using an adaptation of the method of Labarca and Paigen.

blood progenitor cells = conditions: previously shown, cited from earlier work

Row | SMILES | IC50 [1] | melting point | decrease in IC50 over the lead compound NSAH (TP8) ([1]; Pancl cells) | inhibition of growth of Pancl cells [1] | activity/potency against growth of Pancl cells (in words) [1] | effectiveness against blood progenitor cells versus cancer cell lines (blood progenitor cells) | therapeutic index compared with gemcitabine (blood progenitor cells; same cell-cell comparison)
1 | O=C(NNC(=O)c1ccccc1O)c1cccnc1 [TP13, N′-(2-Hydroxybenzoyl)-Nicotinohydrazide] | > 10 µM | 216.6 to 217.7 °C | – | did not inhibit the growth | – | – | –
2 | Nc1ncnc2c1ncn2-c1ccc(/C=N/NC(=O)c2ccccc2O)cc1 [TP7, (E)-N′-(4-(6-Amino-9H-Purin-9-Yl)Benzylidene)-2-Hydroxybenzohydrazide] | > 10 µM | 229.5 °C | – | did not inhibit the growth | – | – | –
3 | O=C(N/N=C/c1c(O)ccc2ccccc12)c1ccccc1O [TP8, (E)-2-Hydroxy-N′-((2-Hydroxynaphthalen-1-Yl)Methylene)-Benzohydrazide] | < 1.5 µM | 223.8 °C | – | – | – | much less effective | higher therapeutic index than gemcitabine
4 | COc1ccc(-c2cnc(-c3ccccc3O)s2)cc1 [TP9, 2-(5-(4-Methoxyphenyl)Thiazol-2-Yl)-Phenol] | > 10 µM | 95.2 to 96.8 °C | – | did not inhibit the growth | ineffective | – | –
5 | O=C(N/N=C/c1cccnc1)c1c(O)ccc2ccccc12 [TP12, (E)-2-Hydroxy-N′-(Pyridin-3-Ylmethylene)-1-Naphthohydrazide] | > 10 µM | 202.8 to 204.5 °C | – | did not inhibit the growth | – | – | –
6 | O=C(NNC(=O)c1c(O)ccc2ccccc12)c1cccnc1 [TP11, N′-(2-Hydroxy-1-Naphthoyl)-Nicotinohydrazide] | > 10 µM | 227.1 to 228.6 °C | – | did not inhibit the growth | – | – | –

The next lines start with results.

Row | IC50 [1] | melting point | decrease in IC50 over the lead compound NSAH (TP8) ([1]; Pancl cells) | SMILES | inhibition of growth of Pancl cells [1] | activity/potency against growth of Pancl cells (in words) [1] | effectiveness against blood progenitor cells versus cancer cell lines (blood progenitor cells) | therapeutic index compared with gemcitabine (blood progenitor cells; same cell-cell comparison)
7 | > 10 µM | – | – | O=C1Nc2ccccc2/C1=N\NC(=O)c1ccccc1O [TP1, (E)-2-Hydroxy-N′-(2-Oxoindolin-3-Ylidene)Benzohydrazide] | did not inhibit the growth | – | – | –
8 | < 1.5 µM | 257.9 to 259.4 °C | – | COc1ccc(-c2ccccc2)c(/C=N/NC(=O)c2ccccc2O)c1O [TP5, (E)-2-Hydroxy-N′-((3-Hydroxy-4-Methoxy-11,1′-Biphenyll-2-Yl)Methylene)-Benzohydrazide] | – | – | – | –
9 | < 1.5 µM | 229.5 °C | > 2 fold | COc1ccc(-c2ccsc2)c(/C=N/NC(=O)c2ccccc2O)c1O [TP6, (E)-2-Hydroxy-N′-(2-Hydroxy-3-Methoxy-6-(Thiophen-3-Yl)Benzylidene)-Benzohydrazide] | – | greatest potency | – | –
10 | 2 to 3 µM | 258.6 °C | – | O=C(N/N=C/c1c(O)ccc2ccccc12)c1ccc(-n2ccccc2=O)cc1 [TP10, (E)-N′-((2-Hydroxynaphthalen-1-Yl)Methylene)-4-(2-Oxopyridin-1(2H)-Yl)-Benzohydrazide] | – | – | – | –
11 | 2 to 3 µM | 273.5 to 274.9 °C | – | O=C(N/N=C/c1cc(-c2ccccc2)ccc1O)c1ccccc1O [TP2] | – | – | – | –
12 | < 1.5 µM | 228.3 °C (dec.) | – | COc1ccc(-c2ccoc2)c(/C=N/NC(=O)c2ccccc2O)c1O [TP4, (E)-N′-(6-(Furan-3-Yl)-2-Hydroxy-3-Methoxybenzylidene)-2-Hydroxybenzohydrazide] | – | – | – | –
13 | 2 to 3 µM | 282.9 to 284.6 °C | – | O=C(N/N=C/c1cc(-c2ccsc2)ccc1O)c1ccccc1O [TP3, (E)-2-Hydroxy-N′-(2-Hydroxy-5-(Thiophen-3-Yl)-Benzylidene)-Benzohydrazide] | – | – | – | –
